Columns and labels:
[1] = tested on: aP2/FABP4; assay: Immunoblot of aP2/FABP4 in 3T3-L1 adipocytes; type: cell-based, mouse; details: immunoblot normalized with actin
Excerpt: (§1) The inventors have then evaluated the modulation of metabolic biomarkers those are primarily responsible for the adipogenesis processes, insulin resistance in type 2 diabetes, obesity, metabolic syndrome and other metabolic disorders such as Peroxisome proliferator-activated receptor gamma (PPARγ), CD36, adipocyte fatty acid binding protein 4 (FABP4 or aP2), Perilipin, and beta-3 Adrenergic Receptor (β3AR) during adipogenesis process in 3T3-L1 adipocytes by ethyl actate extract (LI/DD-II/054A/01) of Sphaeranthus indicus and 7-hydroxyfrullanolide (LI054A01) using an immunoblot assay. […] The protein extracts were evaluated by immunoblot assay, and the immuno-reactive bands were developed with West-pico chemiluminescent substrate and the blot images were captured in a Kodak Image Station, normalized with expression of actin.
(§2) Experimental protocol: Mouse pre-adipocyte 3T3-L1 cells are maintained in Dulbecco's Modified Eagles Medium (DMEM) supplemented with 2 mM glutamine, 4.5 g/L glucose and 10% fetal bovine serum. […] Protein content was measured in Bradford method by using Coomassie blue dye and cell lysates were stored in aliquots at −80° C. until further use. […]
(§3) Inhibition of protein expression of biomarker molecules adipocytes in presence or absence of Sphaeranthus indicus extract LI/DD-II/054A/01 and 7-hydroxyfrullanolide (LI054A01) was evaluated in immunoblot assay. […]

[2] = tested on: 3T3-L1 mouse pre-adipocyte cells; assay: Inhibition of lipid accumulation in differentiated adipocytes (Oil Red O); type: cell-based; details: Mus musculus; at 0.5 μg/ml; 3T3-L1 (Table I)
Procedure: The inhibition of fat accumulation in the treated cells was compared with the mock treated differentiated adipocytes and percentage inhibition was measured.
One hundred thousand 3T3-L1 […] pre-adipocyte cells in Dulbecco's Modified Eagles Medium (DMEM) containing 10% Fetal Bovine Serum (FBS) were taken into each well of a 24-well plate and incubated for 48 h at 37° C. and 5% CO2. The differentiation of pre-adipocyte cells was initiated in a differentiation medium containing 10 μg/ml insulin, 1.0 μM dexamethasone, and 0.5 mM isobutylmethylxanthine (IBMX) for 48 h. After this the medium was replaced by DMEM containing 10 μg/ml insulin and incubated for 3 days. Then the differentiating cells were treated 10 μg/ml of Sphaeranthus indicus ethyl acetate extract (LI/DD-II/054A/01) and 0.5 μg/ml of 7-hydroxyfrullanolide (LI054A01) and maintained in the medium for another 3-5 days. The cells incubated with 0.1% DMSO were considered as the vehicle control. After the incubation period, cells were washed with phosphate buffered saline (PBS) and fixed with 10% buffered formalin for 1 h at room temperature. One small aliquot of cell suspension was separated for cell counting in hemocytometer chamber. Fixed cells were stained with Oil Red O solution to measure the cellular neutral lipid accumulation. Briefly, cells were washed with PBS, fixed with 10% buffered formalin and stained with Oil Red O solution (0.5 g in 100 ml isopropanol) for 10 min. After removing the staining solution, the dye retained in the cells will be eluted into isopropanol and OD measured at 550 nm. The inhibition of fat accumulation in the treated cells was compared with the mock treated differentiated adipocytes. The treated and control cells were also analyzed and compared for inhibition of lipid accumulation visually under microscope and recorded digitally in suitable image capture system. The anti-adipogenic activities shown by Sphaeranthus Indicus ethyl acetate extract (LI/DD-II/054A/01) and LIO054A01 are summarized in the following table.

[3] = tested on: CD36; assay: Immunoblot of CD36 in 3T3-L1 adipocytes; type: cell-based, mouse; details: immunoblot normalized with actin
Excerpt: as §1, §2, §3

C=C1C(=O)O[C@H]2C3=C(C)CCC[C@]3(C)CC[C@@]12O [LI054A01, 7-α-hydroxy-4,11(13)-eudesmadien-12,6-olide]
aP2/FABP4 protein level [1]: potently ameliorated | inhibition at 0.5 µg/mL [2]: 68.7% | adipocyte CD36 protein level [3]: potently ameliorated

Reference: patent US9241964B2, “Composition from Sphaeranthus indicus and Garcinia mangostana for the control of metabolic syndrome” (LAILA NUTRACEUTICALS, priority 2009, dated 2016)
